Assay results reported in PMC7661129, “Evaluation of Binding of Rosmarinic Acid with Human Transferrin and Its Impact on the Protein Structure: Targeting Polyphenolic Acid-Induced Protection of Neurodegenerative Disorders” (Oxidative Medicine and Cellular Longevity, 2020).

Legend:
Human transferrin (hTf) [1] = target: T1, Human transferrin (hTf) (Homo sapiens, UniProt P02787); experiment: intrinsic fluorescence quenching, modified Stern-Volmer; type: binding; details: 301 K; 20 mM sodium phosphate pH 7.4; n = 1.25; double-log
T1 construct: gene TF
T1 sequence (P02787 20-698): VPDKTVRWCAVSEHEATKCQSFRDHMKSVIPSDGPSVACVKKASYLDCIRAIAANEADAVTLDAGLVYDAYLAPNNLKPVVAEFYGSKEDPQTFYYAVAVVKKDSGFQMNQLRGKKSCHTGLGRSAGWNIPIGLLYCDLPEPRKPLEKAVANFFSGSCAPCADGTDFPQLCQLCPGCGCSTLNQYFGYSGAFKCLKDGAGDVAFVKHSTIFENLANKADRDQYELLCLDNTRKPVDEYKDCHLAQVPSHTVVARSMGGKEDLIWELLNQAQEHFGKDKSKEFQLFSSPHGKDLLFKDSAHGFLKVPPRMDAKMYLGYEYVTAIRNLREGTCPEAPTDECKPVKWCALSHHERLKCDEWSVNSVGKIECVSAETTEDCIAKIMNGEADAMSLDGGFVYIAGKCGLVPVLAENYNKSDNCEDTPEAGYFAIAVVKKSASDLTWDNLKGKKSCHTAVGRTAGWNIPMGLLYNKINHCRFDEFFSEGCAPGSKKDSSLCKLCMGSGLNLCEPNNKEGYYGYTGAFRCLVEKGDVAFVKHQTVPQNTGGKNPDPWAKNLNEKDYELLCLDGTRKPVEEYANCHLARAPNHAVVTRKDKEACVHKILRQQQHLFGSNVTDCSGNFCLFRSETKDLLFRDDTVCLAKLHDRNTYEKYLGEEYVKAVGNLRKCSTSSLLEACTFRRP
Text: intrinsic fluorescence quenching, modified Stern-Volmer on Human transferrin (hTf)

Human transferrin (hTf) [2] = target: T1, Human transferrin (hTf); experiment: isothermal titration calorimetry (VP-ITC); type: binding; details: 25 °C; 20 mM sodium phosphate pH 7.4; four-site fit, first site; large fit error, Ka4 printed negative; unreliable

K (10^7 M^-1) (Human transferrin (hTf) [1]): 0.107 × 10^7 M^-1 | Ka1 (Human transferrin (hTf) [2]): 115000 ± 81000 M⁻¹
Structure (SMILES): O=C(/C=C/c1ccc(O)c(O)c1)O[C@H](Cc1ccc(O)c(O)c1)C(=O)O [Rosmarinic acid]
